Reference: PMC9136103 (The Journal of Biological Chemistry, 2022)
One block for each molecule: values may come before it.

What was measured:
[1] = target: T1, human ornithine aminotransferase (hOAT) (Homo sapiens, UniProt P04181); experiment: crystal structure by soaking (~[…] Å); stopped-flow kinetics Kd; assay type: biochemical
T1 construct: gene OAT; t-hOAT expressed as MBP fusion, MBP tag removed
T1 sequence (P04181 26-439 limits assumed): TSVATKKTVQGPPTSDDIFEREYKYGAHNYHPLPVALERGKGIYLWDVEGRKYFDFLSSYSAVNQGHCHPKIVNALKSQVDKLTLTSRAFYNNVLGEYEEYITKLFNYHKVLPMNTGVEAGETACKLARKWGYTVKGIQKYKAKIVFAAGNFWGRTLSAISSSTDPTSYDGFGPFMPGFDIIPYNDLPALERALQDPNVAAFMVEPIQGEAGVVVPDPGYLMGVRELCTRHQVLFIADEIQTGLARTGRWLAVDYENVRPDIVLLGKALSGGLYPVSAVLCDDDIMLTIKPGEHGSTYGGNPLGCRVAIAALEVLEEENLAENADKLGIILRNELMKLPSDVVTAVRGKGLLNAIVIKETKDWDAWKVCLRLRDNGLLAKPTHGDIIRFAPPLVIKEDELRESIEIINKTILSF

[2] = target: T1, human ornithine aminotransferase (hOAT); experiment: stopped-flow transient-state kinetics, purified enzyme (Kd not determined); assay type: biochemical
[3] = target: T1, human ornithine aminotransferase (hOAT); experiment: crystal structure by soaking (~[…] Å); UV-Vis titration Kd; assay type: binding
[4] = target: T1, human ornithine aminotransferase (hOAT); experiment: stopped-flow transient-state kinetics, purified enzyme; assay type: biochemical; conditions: read-out: Dissociation constant (Kd)

Kd [1]: 735 ± 78 µM
Compound: NCCCCC(=O)O [AVA, 5-aminovaleric acid]

Compound: NCC[C@H](N)C(=O)O [DABA, L-2,4-diaminobutyric acid]
klim/Kd [2]: 0.249 ± 0.006 M⁻¹ s⁻¹

Kd [3]: 110 ± 15 µM
Compound: NCCCC(=O)O [GABA, γ-aminobutyric acid]

Kd [4]: 4700 ± 290 µM
Compound: NCCC[C@H](N)C(=O)O [L-Orn, L-ornithine]
